Experimental findings from PubChem BioAssay (NCI) are described below.

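Method: 48-hour compound exposure of cells in 96-well plates, five concentrations, linear interpolation of endpoints. GI50 marks 50% less growth. TGI is the concentration that stops growth completely.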

Common to all, as to test: growth of human tumour cells (NCI), 48 h
In experiment [1] the test system is CAKI-1 renal.
The test system of experiment [2] is KM12 colon.
Experiment [3] relates to MALME-3M melanoma.
For experiment [4], the system named is NCI-H23 lung.
Experiment [5] has as its system OVCAR-3 ovarian.
Experiment [6] deals with OVCAR-4 ovarian.
Experiment [7] relates to SF-268 CNS.
For experiment [8], the system named is SF-539 CNS.
Experiment [9] concerns TK-10 renal.
For experiment [10], the system named is UACC-62 melanoma.

Turning to `NS(=O)(=O)c1cccc(-c2cc3ccncc3cc2OCc2ccccc2)c1`, the GI50 in experiment [1] is 10.6 µM; in experiment [2], 10.7 µM; in experiment [3] it was 14.7 µM; in [4], > 18.4 µM; in experiment [5], 10.9 µM; in experiment [6], 11.5 µM. The GI50 was 14.5 µM in experiment [7], 8.62 µM in experiment [8], 9.77 µM in experiment [9] and 9.76 µM in [10]. Further, the TGI in experiment [1], in experiment [2], in [3], in [4], in experiment [5] and in experiment [6] was > 25 µM throughout. The TGI in experiment [7], in experiment [8], in [9] and in [10] was > 25 µM throughout.
Regarding `COc1ccc(Oc2nc(Nc3ccc(N4CCOCC4)cc3)ncc2NC(=O)Nc2cc(OC)cc(OC)c2)cc1`, the GI50 is 4.24 µM in experiment [1]; 1.82 µM in experiment [2]; 0.969 µM in experiment [3]; 2.69 µM in [4]; 1.41 µM in experiment [5]; 2.91 µM in experiment [6]. Besides, the GI50 in [7] was 2.64 µM; in experiment [8] it was 1.06 µM; in [9], 6.58 µM; in experiment [10], 1.99 µM. Also, the TGI in [1] came to 13.5 µM; in experiment [2], 15.3 µM; in experiment [3], 3.27 µM; in [4], 23.4 µM; in experiment [5], 5.46 µM; in experiment [6], 10.9 µM. Moreover, the TGI in experiment [7] was > 33.3 µM; in experiment [8], 4.69 µM; in experiment [9], > 33.3 µM; in experiment [10], 7.41 µM.
Regarding `CN=c1ss/c(=N\C(=S)N(C)C)n1C1CCCCC1`, the TGI in experiment [1], in experiment [2], in experiment [3], in experiment [4], in experiment [5] and in experiment [6] was > 31.6 µM in each case. Also, the TGI in experiment [7] is > 31.6 µM; in experiment [8], > 100 µM; in experiment [9] it was > 31.6 µM; in experiment [10], > 31.6 µM.
Turning to `O=S1CCN(Cc2ccc(-c3ccc4ncnc(Nc5ccc(OCc6ccccc6)c(F)c5)c4c3)o2)CC1`, the GI50 was 0.394 µM in [1]; 10.1 µM in experiment [2]; 7.08 µM in experiment [3]; 11.3 µM in experiment [4]; 7.93 µM in [5]; 5.75 µM in experiment [6]. Also, the GI50 in experiment [7] is 17.8 µM; in experiment [8], 5.84 µM; in experiment [9] it was 0.232 µM; in [10], 5.1 µM. Moreover, the TGI in experiment [1] was > 25 µM; in [2], > 25 µM; in experiment [3], > 22.6 µM; in experiment [4] it was > 25 µM; in [5] it was > 25 µM; in experiment [6], > 25 µM. Moreover, the TGI in experiment [7] is > 25 µM; in [8], 15.1 µM; in [9] it was > 25 µM; in [10], 16 µM.
`COc1cc(-c2ccccc2)c(OC)cc1CCl`: the TGI in experiment [1], in [2], in [3], in experiment [4], in experiment [5] and in experiment [6] was > 100 µM in each case. For the same compound, the TGI in experiment [7], in [8], in experiment [9] and in experiment [10] was > 100 µM each time.
`CC(=O)Nc1c(I)c(C(=O)O)c(I)c(N(C)C(C)=O)c1I`: the GI50 in experiment [1], in experiment [2], in [3], in [4], in [5] and in experiment [6] was > 100 µM in each case. For the same compound, the GI50 in experiment [7], in experiment [8], in [9] and in experiment [10] was > 100 µM each time. The TGI in experiment [1], in [2], in experiment [3], in [4], in experiment [5] and in experiment [6] was > 100 µM each time. Further, the TGI in experiment [7], in [8], in experiment [9] and in experiment [10] was > 100 µM throughout.
As to `COc1cc(-c2ccc(Nc3ccccc3C(=O)O)c(OC)c2)ccc1Nc1ccccc1C(=O)O`, the TGI in experiment [1] is > 71.1 µM; in experiment [2], > 70.9 µM; in experiment [3] it was > 100 µM; in [4], 71 µM; in experiment [5], 39.1 µM; in [6], > 100 µM. Besides, the TGI in experiment [7] is > 100 µM; in [8], 45 µM; in experiment [9] it was > 89 µM; in experiment [10] it was 35.6 µM.
With `CCOP(=O)(CCN1CCN(CCCCCOc2cc3c(cc2OC)C(=O)N2CCC[C@H]2C=N3)CC1)OCC`, the GI50 was 5.84 µM in [1]; 12.1 µM in experiment [2]; 18.4 µM in experiment [3]; 16.6 µM in experiment [4]; 7.48 µM in [5]; 14.9 µM in [6]. Also, the GI50 in experiment [7] was 3.53 µM; in experiment [8], 3.6 µM; in experiment [9], 22.8 µM; in experiment [10] it was 7.86 µM. Also, the TGI in experiment [1] amounted to 97.9 µM; in experiment [2], 36.3 µM; in experiment [3], 47.7 µM; in experiment [4], 38.4 µM; in experiment [5], 34.1 µM; in [6], 57.1 µM. For the same compound, the TGI in experiment [7] was 49.6 µM; in [8], 17.7 µM; in experiment [9], > 100 µM; in experiment [10], 24.2 µM.
For `Cc1cc(C(=O)N2CCN(C)CC2)c2c(=O)n(-c3ccccc3)c(=O)n(CC(O)CN3CCN(c4ncccn4)CC3)c2n1` (stereo not given), the GI50 in experiment [1], in experiment [2], in experiment [3], in experiment [4], in experiment [5] and in [6] was > 100 µM in each case. For the same compound, the GI50 in [7], in experiment [8], in experiment [9] and in [10] was > 100 µM each time. Besides, the TGI in [1], in [2], in experiment [3], in experiment [4], in experiment [5] and in [6] was > 100 µM throughout. Moreover, the TGI in experiment [7], in experiment [8], in experiment [9] and in experiment [10] was > 100 µM throughout.
